From PubChem BioAssay (NCI)
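Test compounds were applied to cells in 96-well plates for 48 hours at 5 doses. GI50 is the concentration that inhibits growth by half. TGI: concentration producing complete growth inhibition.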

Experiments:
Experiment in all cases: NCI tumour cell line growth inhibition, 48 h
[1] = system: 786-0 renal
[2] = system: A498 renal
[3] = system: A549 NSCLC
[4] = system: ACHN renal
[5] = system: BT-549 breast
[6] = system: CAKI-1 renal
[7] = system: CCRF-CEM leukemia
[8] = system: COLO 205 colon
[9] = system: DU-145 prostate
[10] = system: EKVX NSCLC
[11] = system: HCC-2998 colon
[12] = system: HCT-116 colon
[13] = system: HCT-15 colon
[14] = system: HL-60(TB) leukemia
[15] = system: HOP-62 NSCLC
[16] = system: HOP-92 NSCLC
[17] = system: HS 578T breast
[18] = system: HT29 colon
[19] = system: IGROV1 ovarian
[20] = system: K-562 leukemia
[21] = system: KM12 colon
[22] = system: LOX IMVI melanoma
[23] = system: M14 melanoma
[24] = system: MCF7 breast
[25] = system: MDA-MB-231 breast
[26] = system: MDA-MB-435
[27] = system: MOLT-4 leukemia
[28] = system: NCI-H226 lung
[29] = system: NCI-H23 lung
[30] = system: NCI-H460 lung
[31] = system: NCI-H522 lung
[32] = system: NCI/ADR-RES ovarian
[33] = system: OVCAR-3 ovarian
[34] = system: OVCAR-4 ovarian
[35] = system: OVCAR-5 ovarian
[36] = system: OVCAR-8 ovarian
[37] = system: PC-3 prostate
[38] = system: RPMI-8226 leukemia
[39] = system: RXF 393 renal
[40] = system: SF-268 CNS
[41] = system: SF-295 CNS
[42] = system: SF-539 CNS
[43] = system: SK-MEL-28 melanoma
[44] = system: SK-MEL-5 melanoma
[45] = system: SK-OV-3 ovarian
[46] = system: SN12C renal
[47] = system: SNB-19 CNS
[48] = system: SNB-75 CNS
[49] = system: SR leukemia
[50] = system: SW-620 colon
[51] = system: T-47D breast
[52] = system: TK-10 renal
[53] = system: U251 CNS
[54] = system: UACC-257 melanoma
[55] = system: UACC-62 melanoma
[56] = system: UO-31 renal
[57] = system: SK-MEL-2 melanoma

COc1ccc(Cn2cc3c(c2-c2ccc(OC)cc2)CCc2cnoc2-3)cc1
GI50 [1]: 0.658 µM
TGI [1]: > 100 µM
GI50 [2]: 0.213 µM
TGI [2]: 0.749 µM
GI50 [3]: 0.582 µM
TGI [3]: > 100 µM
GI50 [4]: 0.892 µM
TGI [4]: > 100 µM
GI50 [5]: 0.76 µM
TGI [5]: > 100 µM
GI50 [6]: 0.309 µM
TGI [6]: > 100 µM
GI50 [7]: 0.364 µM
TGI [7]: > 100 µM
GI50 [8]: 0.296 µM
TGI [8]: 0.815 µM
GI50 [9]: 0.35 µM
TGI [9]: 2.71 µM
GI50 [10]: 0.523 µM
TGI [10]: > 100 µM
GI50 [11]: 0.846 µM
TGI [11]: 5.92 µM
GI50 [12]: 0.451 µM
TGI [12]: > 100 µM
GI50 [13]: 0.506 µM
TGI [13]: > 100 µM
GI50 [14]: 0.282 µM
TGI [14]: 1.17 µM
GI50 [15]: 0.539 µM
TGI [15]: > 100 µM
GI50 [16]: 1.12 µM
TGI [16]: > 100 µM
GI50 [17]: 0.301 µM
TGI [17]: 1.14 µM
GI50 [18]: 0.309 µM
TGI [18]: 1.24 µM
GI50 [19]: 0.775 µM
TGI [19]: > 100 µM
GI50 [20]: 0.349 µM
TGI [20]: > 100 µM
GI50 [21]: 0.376 µM
TGI [21]: 2.35 µM
GI50 [22]: 0.706 µM
TGI [22]: > 100 µM
GI50 [23]: 0.404 µM
TGI [23]: > 33.2 µM
GI50 [24]: 0.389 µM
TGI [24]: > 100 µM
GI50 [25]: 1.41 µM
TGI [25]: > 53.7 µM
GI50 [26]: 0.181 µM
TGI [26]: 0.48 µM
GI50 [27]: 0.504 µM
TGI [27]: > 35 µM
GI50 [28]: 1.36 µM
TGI [28]: > 100 µM
GI50 [29]: 0.519 µM
TGI [29]: > 100 µM
GI50 [30]: 0.347 µM
TGI [30]: 1.96 µM
GI50 [31]: 0.199 µM
TGI [31]: 0.572 µM
GI50 [32]: 0.27 µM
TGI [32]: 4.08 µM
GI50 [33]: 0.259 µM
TGI [33]: 0.62 µM
GI50 [34]: 0.93 µM
TGI [34]: > 100 µM
GI50 [35]: 2.68 µM
TGI [35]: > 100 µM
GI50 [36]: 0.621 µM
TGI [36]: > 100 µM
GI50 [37]: 0.602 µM
TGI [37]: > 100 µM
GI50 [38]: 0.336 µM
GI50 [39]: 0.322 µM
GI50 [40]: 0.686 µM
TGI [40]: > 100 µM
GI50 [41]: 0.27 µM
TGI [41]: 0.96 µM
GI50 [42]: 0.307 µM
TGI [42]: 2.13 µM
GI50 [43]: 0.804 µM
TGI [43]: > 100 µM
GI50 [44]: 0.343 µM
TGI [44]: 4.71 µM
GI50 [45]: 0.571 µM
TGI [45]: > 100 µM
GI50 [46]: 0.795 µM
TGI [46]: > 100 µM
GI50 [47]: 0.679 µM
TGI [47]: > 100 µM
GI50 [48]: 0.216 µM
TGI [48]: 0.804 µM
GI50 [49]: 0.331 µM
TGI [49]: 1.94 µM
GI50 [50]: 0.353 µM
TGI [50]: > 100 µM
GI50 [51]: 0.533 µM
TGI [51]: > 100 µM
GI50 [52]: 0.616 µM
TGI [52]: > 100 µM
GI50 [53]: 0.444 µM
TGI [53]: > 100 µM
GI50 [54]: 1.57 µM
TGI [54]: > 100 µM
GI50 [55]: 0.547 µM
TGI [55]: > 100 µM
GI50 [56]: 0.797 µM
TGI [56]: > 100 µM

O=S(=O)(O)ON=C1c2ccccc2-c2ccccc21
TGI [1]: > 100 µM
TGI [2]: > 100 µM
TGI [3]: > 100 µM
TGI [4]: > 100 µM
TGI [5]: > 100 µM
TGI [6]: > 100 µM
TGI [7]: > 100 µM
TGI [8]: > 100 µM
TGI [9]: > 100 µM
TGI [10]: > 100 µM
TGI [11]: > 100 µM
TGI [12]: > 100 µM
TGI [14]: > 100 µM
TGI [15]: > 100 µM
TGI [16]: > 100 µM
TGI [17]: > 100 µM
TGI [18]: > 100 µM
TGI [19]: > 100 µM
TGI [20]: > 100 µM
TGI [21]: > 100 µM
TGI [22]: > 100 µM
TGI [23]: > 100 µM
TGI [24]: > 100 µM
TGI [25]: > 100 µM
TGI [26]: > 100 µM
TGI [27]: > 100 µM
TGI [28]: > 100 µM
TGI [29]: > 100 µM
TGI [30]: > 100 µM
TGI [31]: > 100 µM
TGI [32]: > 100 µM
TGI [33]: > 100 µM
TGI [34]: > 100 µM
TGI [35]: > 100 µM
TGI [36]: > 100 µM
TGI [37]: > 100 µM
TGI [38]: > 100 µM
TGI [39]: > 100 µM
TGI [40]: > 100 µM
TGI [41]: > 100 µM
TGI [42]: > 100 µM
TGI [57]: > 100 µM
TGI [43]: > 100 µM
TGI [44]: > 100 µM
TGI [45]: > 100 µM
TGI [46]: > 100 µM
TGI [47]: > 100 µM
TGI [48]: > 100 µM
TGI [49]: > 100 µM
TGI [50]: > 100 µM
TGI [51]: > 100 µM
TGI [52]: > 100 µM
TGI [53]: > 100 µM
TGI [54]: > 100 µM
TGI [55]: > 100 µM
TGI [56]: > 100 µM

CN(C)c1nncc2[nH]cnc12
TGI [1]: > 100 µM
TGI [2]: > 100 µM
TGI [3]: > 100 µM
TGI [4]: > 100 µM
TGI [5]: > 100 µM
TGI [6]: > 100 µM
TGI [7]: > 100 µM
TGI [8]: > 100 µM
TGI [9]: > 100 µM
TGI [10]: > 100 µM
TGI [12]: > 100 µM
TGI [13]: > 100 µM
TGI [14]: > 100 µM
TGI [15]: > 100 µM
TGI [17]: > 100 µM
TGI [18]: > 100 µM
TGI [19]: > 100 µM
TGI [20]: > 100 µM
TGI [21]: > 100 µM
TGI [23]: > 100 µM
TGI [24]: > 100 µM
TGI [25]: > 100 µM
TGI [26]: > 100 µM
TGI [27]: > 100 µM
TGI [28]: > 100 µM
TGI [29]: > 100 µM
TGI [30]: > 100 µM
TGI [32]: > 100 µM
TGI [33]: > 100 µM
TGI [35]: > 100 µM
TGI [36]: > 100 µM
TGI [37]: > 100 µM
TGI [38]: > 100 µM
TGI [39]: > 100 µM
TGI [40]: > 100 µM
TGI [41]: > 100 µM
TGI [42]: > 100 µM
TGI [57]: > 100 µM
TGI [43]: > 100 µM
TGI [44]: > 100 µM
TGI [46]: > 100 µM
TGI [47]: > 100 µM
TGI [48]: > 100 µM
TGI [49]: > 100 µM
TGI [50]: > 100 µM
TGI [51]: > 100 µM
TGI [52]: > 100 µM
TGI [53]: > 100 µM
TGI [54]: > 100 µM
TGI [55]: > 100 µM
TGI [56]: > 100 µM
